Test results reported in patent US6218112A, “Optimization of gene delivery and gene delivery system” (Cobra Therapeutics Limited, priority 1997, dated 2001).
* marks the point of attachment. Acm = CC(=O)NC*

Experiments:
[1] = system: plasmid nucleic acid pRSVLuc; test: Surface plasmon resonance (BIAcore) binding kinetics of peptides/conjugates to immobilized biotinylated plasmid DNA; details: apparent rate constant for dissociation; SPR, PBS, 25° C.
Protocol: In the examples described below, SPR was detected using the BIAcore system. This machine contained an SPR detector and an integrated microfluidic cartridge which is engineered such that an analyte solution (cationic peptide) is continuously passed over the sensor chip. The sensor chip consists of a glass plate coated with a thin film of gold covered in a layer of carboyxymethyl dextran. The chip used has a dextran layer to which streptavidin is covalently attached. The chip is prepared for use by adding biotinylated nucleic acid which will be bound to the chip via the streptavidin-biotin interaction, and the same chip is used in a series of experiments.
As material binds to the immobilized nucleic acid molecule on the sensor chip, the SPR angle of plane polarized light shining on the surface of the chip is monitored by the detector. Changes in angle are defined as resonance units (RU) and data are collected every second. Background effects are detected and automatically subtracted by the use of a control flow cell in line with the nucleic acid flow cell.
A typical sensorgram has three phases: an association phase, an equilibrium phase and a dissociation phase (see FIG. 1). The rise in signal occurs as more peptide binds to the immobilized plasmid DNA until equilibrium conditions are reached. The height of the peak is directly proportional to the mass of peptide bound. If the flow continues with buffer containing no peptide, peptide begins to dissociate from the complex and the resonance signal is reduced. The sensorgram can be used to compute apparent rate constants for each of the three individual processes.
(1) dC/dt=ka [PF ] [Pmax -PB ]-kd [PB ]
Measurement of Binding Kinetics by Surface Plasmon Resonance
A 6 kilobase (kb) plasmid DNA (pRSVLuc) was biotinylated using photoactivatable biotin (Pierce and Warriner) as per manufacturer's instructions.
A sensor chip with immobilized streptavidin (SA5) was conditioned following manufacturer's instructions, i.e., three one-minute injections of 1 M NaCl: 50 mM NaOH followed by one 1 min injection of 0.5% SDS. Flow rate on the BlAcore sensing device was 20 μl per min, running buffer was phosphate buffered saline (PBS). Flow path was flow cells 1 and 2.
The flow path was switched to flow cell 2 only and the flow rate was reduced to 10 μl per minute. Biotinylated plasmid at a concentration of […] in 0.5M NaCl was injected for 3 mins.
Phosphate buffered saline was used as running buffer at a flow rate of 20 μl per minute. The flow path was over flow cells 1 and 2. Flow cell 1 was used as a reference cell. The experiments were carried out at a temperature of 25° C.
Peptides were injected at various concentrations for three minutes. The injection was followed by a 5 min dissociation phase before the injection port was washed. The sensor chip was regenerated by the injection of 2M NaCl for 1 min. If necessary, this injection was repeated to bring the response back down to baseline before the next peptide sample was injected.
The data was analysed using the methods described in the handbook (BIAevaluation 2.1. Software Handbook, Pharmacia Biosensor AB, Uppsala, Sweden).
Essentially the plots were evaluated as follows: The dissociation constant, kd, was determined first. A curve or family of curves (same NBC at different concentrations) were plotted as response (Y) versus time as Ln (Yo/Y) versus time. In the area where the Ln(Yo/Y) curve was linear, a fit of the default dissociation model [AB]=[A]+[B] was made. The association constant, ka, was then calculated by fitting the related association model on that part of the association curve where a plot of In(abs(dY/dt) versus time was linear. KD were approximated by dividing the calculated kd with the calculated ka.

[2] = without salt at >20 μg/ml

Substance: NH2-KPKAAKPKKPKKKRKVEKKSPKKAKKPAAC(Acm)-COOH (H-KPKAAKPKKPKKKRKVEKKSPKKAKKPAAC(Acm)-OH; SMILES CC(=O)NCSC[C@H](NC(=O)[C@H](C)NC(=O)[C@H](C)NC(=O)[C@@H]1CCCN1C(=O)[C@H](CCCCN)NC(=O)[C@H](CCCCN)NC(=O)[C@H](C)NC(=O)[C@H](CCCCN)NC(=O)[C@H](CCCCN)NC(=O)[C@@H]1CCCN1C(=O)[C@H](CO)NC(=O)[C@H](CCCCN)NC(=O)[C@H](CCCCN)NC(=O)[C@H](CCC(=O)O)NC(=O)[C@@H](NC(=O)[C@H](CCCCN)NC(=O)[C@H](CCCNC(=N)N)NC(=O)[C@H](CCCCN)NC(=O)[C@H](CCCCN)NC(=O)[C@H](CCCCN)NC(=O)[C@@H]1CCCN1C(=O)[C@H](CCCCN)NC(=O)[C@H](CCCCN)NC(=O)[C@@H]1CCCN1C(=O)[C@H](CCCCN)NC(=O)[C@H](C)NC(=O)[C@H](C)NC(=O)[C@H](CCCCN)NC(=O)[C@@H]1CCCN1C(=O)[C@@H](N)CCCCN)C(C)C)C(=O)O) [NBC2]
- kd [1]: 0.00938 s⁻¹
- solubility of complexes [2]: insoluble
